Results taken from patent US4229435A, “Preparation of blood fraction” (priority 1978, dated 1980).

Key:
Format in all cases: biochemical
Conditions in all cases: 5 min 37° C., then iodoacetic acid
[1] = target: T1, F IX (Homo sapiens, UniProt P00740); test: Coagulation factor IX activity in plasma after reducing agent + iodoacetic acid
T1 construct: from tissue; host or cells: human citrated blood plasma
Description: (§1) Human blood with anti-coagulating agent (9 parts blood+1 part 3.8% trisodium citrate) is centrifuged and the following tests with plasma were carried out:
(§2) The plasma is divided into 8 ml portions, which are preheated at 37° C. for 5 min. DTT is added in different concentrations, see table 1 below, and is incubated for 5 min. at 37° C. Then iodoacetic acid, 3 mol per mol DTT, is added, and incubation takes place for 15 min. at 37° C. The plasma samples are distributed in portions of about 0.2 ml and are immediately frozen at -70° C. Testing of different coagulation factors is made in known manner.
(§3) The plasma is divided into 8 ml portions, which are preheated at 37° C. for 5 min. DTE is added in different concentrations (see table 2), and is incubated for 5 minutes at 37° C. Then, iodoacetic acid (3 mol per mol DTE) is added and incubation is carried out for 15 minutes at 37° C. The plasma samples are distributed in portions of about 0.2 ml and are immediately frozen at -70° C. Testing of different coagulation factors is made in a manner known per se.
as §3, with “minutes. Lipoic acid” for “min. DTE”, “3),” for “2),”, “lipoic acid)” for “DTE)”
as §3, with “minutes. Mercaptoethanol” for “min. DTE”, “4),” for “2),”, “mercaptoethanol)” for “DTE)”
as §3, with “minutes. Potassium borohydride” for “min. DTE”, “5,” for “2),”, “potassium borohydride)” for “DTE)”

[2] = target: T2, F V (Homo sapiens, UniProt P12259); test: Coagulation factor V activity in plasma after reducing agent + iodoacetic acid
T2 construct: from tissue; host or cells: human citrated blood plasma
T2 sequence (P12259 29-2224): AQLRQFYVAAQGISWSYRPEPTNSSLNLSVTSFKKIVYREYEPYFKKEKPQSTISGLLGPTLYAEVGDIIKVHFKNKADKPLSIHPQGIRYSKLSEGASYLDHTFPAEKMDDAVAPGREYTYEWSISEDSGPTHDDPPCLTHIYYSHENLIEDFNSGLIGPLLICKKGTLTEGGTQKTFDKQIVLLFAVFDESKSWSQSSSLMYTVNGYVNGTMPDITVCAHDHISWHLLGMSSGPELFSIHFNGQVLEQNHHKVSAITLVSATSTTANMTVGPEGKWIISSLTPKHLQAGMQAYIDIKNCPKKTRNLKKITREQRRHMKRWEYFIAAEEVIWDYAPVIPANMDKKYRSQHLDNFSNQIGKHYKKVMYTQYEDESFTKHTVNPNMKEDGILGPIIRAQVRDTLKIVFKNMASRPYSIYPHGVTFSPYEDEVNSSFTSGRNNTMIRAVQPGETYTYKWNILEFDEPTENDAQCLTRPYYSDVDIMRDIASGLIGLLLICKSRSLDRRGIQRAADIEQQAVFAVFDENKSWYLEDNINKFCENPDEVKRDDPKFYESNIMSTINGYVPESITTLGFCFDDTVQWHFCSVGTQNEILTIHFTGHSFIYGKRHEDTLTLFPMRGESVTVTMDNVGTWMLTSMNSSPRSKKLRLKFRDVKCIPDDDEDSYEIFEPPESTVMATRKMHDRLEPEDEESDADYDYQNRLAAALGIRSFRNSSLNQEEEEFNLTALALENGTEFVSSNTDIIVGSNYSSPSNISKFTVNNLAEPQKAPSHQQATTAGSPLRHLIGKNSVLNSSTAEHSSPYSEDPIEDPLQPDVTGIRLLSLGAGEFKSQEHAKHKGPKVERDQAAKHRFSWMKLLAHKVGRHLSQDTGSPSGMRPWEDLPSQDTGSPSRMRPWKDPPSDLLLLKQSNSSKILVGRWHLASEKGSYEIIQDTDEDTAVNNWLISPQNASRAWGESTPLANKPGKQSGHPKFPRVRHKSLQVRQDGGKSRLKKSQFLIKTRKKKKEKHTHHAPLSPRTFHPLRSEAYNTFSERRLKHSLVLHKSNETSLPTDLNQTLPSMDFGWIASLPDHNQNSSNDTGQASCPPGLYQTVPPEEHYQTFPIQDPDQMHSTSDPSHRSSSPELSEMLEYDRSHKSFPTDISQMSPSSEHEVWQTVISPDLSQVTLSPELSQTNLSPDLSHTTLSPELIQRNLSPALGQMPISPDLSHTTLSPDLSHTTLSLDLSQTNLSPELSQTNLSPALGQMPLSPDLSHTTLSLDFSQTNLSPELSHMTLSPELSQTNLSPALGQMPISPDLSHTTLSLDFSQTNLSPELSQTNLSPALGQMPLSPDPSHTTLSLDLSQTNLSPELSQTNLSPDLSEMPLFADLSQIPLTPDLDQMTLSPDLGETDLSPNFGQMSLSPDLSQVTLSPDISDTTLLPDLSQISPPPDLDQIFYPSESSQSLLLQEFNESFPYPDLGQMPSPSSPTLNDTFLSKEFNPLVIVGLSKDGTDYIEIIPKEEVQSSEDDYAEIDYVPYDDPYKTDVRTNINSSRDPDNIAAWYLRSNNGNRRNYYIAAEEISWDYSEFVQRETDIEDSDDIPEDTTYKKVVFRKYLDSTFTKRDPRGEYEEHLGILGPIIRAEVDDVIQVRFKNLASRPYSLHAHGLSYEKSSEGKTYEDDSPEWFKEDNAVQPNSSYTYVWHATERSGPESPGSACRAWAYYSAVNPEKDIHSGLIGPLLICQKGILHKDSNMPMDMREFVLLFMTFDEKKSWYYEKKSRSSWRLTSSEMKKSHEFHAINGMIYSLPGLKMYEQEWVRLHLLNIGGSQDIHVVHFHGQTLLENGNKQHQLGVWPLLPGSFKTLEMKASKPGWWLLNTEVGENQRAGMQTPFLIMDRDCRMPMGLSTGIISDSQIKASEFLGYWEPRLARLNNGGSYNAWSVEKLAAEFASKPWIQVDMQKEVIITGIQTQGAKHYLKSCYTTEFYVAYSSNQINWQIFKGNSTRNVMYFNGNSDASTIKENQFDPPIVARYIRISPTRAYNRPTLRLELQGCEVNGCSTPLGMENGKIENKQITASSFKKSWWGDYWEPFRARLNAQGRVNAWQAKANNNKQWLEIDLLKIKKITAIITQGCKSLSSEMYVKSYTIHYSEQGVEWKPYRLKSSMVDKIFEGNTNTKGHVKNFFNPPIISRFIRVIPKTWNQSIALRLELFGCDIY
Description: as §1, §2, §3
as §3, with “minutes. Lipoic acid” for “min. DTE”, “3),” for “2),”, “lipoic acid)” for “DTE)”
as §3, with “minutes. Mercaptoethanol” for “min. DTE”, “4),” for “2),”, “mercaptoethanol)” for “DTE)”
as §3, with “minutes. Potassium borohydride” for “min. DTE”, “5,” for “2),”, “potassium borohydride)” for “DTE)”

[3] = target: T3, F VII (Homo sapiens, UniProt P08709); test: Coagulation factor VII activity in plasma after reducing agent + iodoacetic acid
T3 construct: from tissue; host or cells: human citrated blood plasma
T3 sequence (P08709 61-466): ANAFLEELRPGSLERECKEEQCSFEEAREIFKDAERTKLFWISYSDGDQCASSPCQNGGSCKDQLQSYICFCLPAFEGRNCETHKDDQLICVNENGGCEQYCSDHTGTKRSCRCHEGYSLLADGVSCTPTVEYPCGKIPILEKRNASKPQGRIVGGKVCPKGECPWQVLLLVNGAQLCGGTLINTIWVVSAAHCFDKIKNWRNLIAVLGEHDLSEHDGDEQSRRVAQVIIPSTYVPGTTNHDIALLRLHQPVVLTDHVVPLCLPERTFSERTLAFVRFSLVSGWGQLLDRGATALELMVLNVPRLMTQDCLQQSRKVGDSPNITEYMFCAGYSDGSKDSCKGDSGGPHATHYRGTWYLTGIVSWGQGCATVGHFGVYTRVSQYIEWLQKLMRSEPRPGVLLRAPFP
Description: as §1, §2, §3
as §3, with “minutes. Lipoic acid” for “min. DTE”, “3),” for “2),”, “lipoic acid)” for “DTE)”
as §3, with “minutes. Mercaptoethanol” for “min. DTE”, “4),” for “2),”, “mercaptoethanol)” for “DTE)”
as §3, with “minutes. Potassium borohydride” for “min. DTE”, “5,” for “2),”, “potassium borohydride)” for “DTE)”

[4] = target: T4, F XI (Homo sapiens, UniProt P03951); test: Coagulation factor XI activity in plasma after reducing agent + iodoacetic acid
T4 construct: from tissue; host or cells: human citrated blood plasma
T4 sequence (P03951 19-625): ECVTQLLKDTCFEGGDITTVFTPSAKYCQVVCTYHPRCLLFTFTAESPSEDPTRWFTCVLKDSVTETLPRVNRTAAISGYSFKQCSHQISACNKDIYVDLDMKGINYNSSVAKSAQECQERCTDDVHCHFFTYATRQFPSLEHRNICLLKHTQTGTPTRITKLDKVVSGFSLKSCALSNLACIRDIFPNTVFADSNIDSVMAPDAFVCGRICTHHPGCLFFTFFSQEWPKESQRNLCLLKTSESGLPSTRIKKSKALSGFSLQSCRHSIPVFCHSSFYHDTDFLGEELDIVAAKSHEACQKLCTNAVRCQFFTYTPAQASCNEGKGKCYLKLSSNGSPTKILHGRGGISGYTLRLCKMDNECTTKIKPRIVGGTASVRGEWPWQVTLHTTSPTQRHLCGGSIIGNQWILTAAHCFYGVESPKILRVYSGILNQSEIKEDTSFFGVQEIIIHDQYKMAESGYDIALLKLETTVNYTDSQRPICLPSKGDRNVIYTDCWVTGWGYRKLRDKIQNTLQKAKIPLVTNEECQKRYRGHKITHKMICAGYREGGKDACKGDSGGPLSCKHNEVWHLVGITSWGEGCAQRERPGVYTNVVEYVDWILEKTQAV
Description: as §1, §2, §3
as §3, with “minutes. Lipoic acid” for “min. DTE”, “3),” for “2),”, “lipoic acid)” for “DTE)”
as §3, with “minutes. Mercaptoethanol” for “min. DTE”, “4),” for “2),”, “mercaptoethanol)” for “DTE)”
as §3, with “minutes. Potassium borohydride” for “min. DTE”, “5,” for “2),”, “potassium borohydride)” for “DTE)”

[5] = target: T5, F II (Homo sapiens, UniProt P00734); test: Coagulation factor II activity in plasma after reducing agent + iodoacetic acid
T5 construct: from tissue; host or cells: human citrated blood plasma
Description: as §1, §2, §3
as §3, with “minutes. Lipoic acid” for “min. DTE”, “3),” for “2),”, “lipoic acid)” for “DTE)”
as §3, with “minutes. Mercaptoethanol” for “min. DTE”, “4),” for “2),”, “mercaptoethanol)” for “DTE)”
as §3, with “minutes. Potassium borohydride” for “min. DTE”, “5,” for “2),”, “potassium borohydride)” for “DTE)”

[6] = target: T6, F XII (Homo sapiens, UniProt P00748); test: Coagulation factor XII activity in plasma after reducing agent + iodoacetic acid
T6 construct: from tissue; host or cells: human citrated blood plasma
T6 sequence (P00748 20-615): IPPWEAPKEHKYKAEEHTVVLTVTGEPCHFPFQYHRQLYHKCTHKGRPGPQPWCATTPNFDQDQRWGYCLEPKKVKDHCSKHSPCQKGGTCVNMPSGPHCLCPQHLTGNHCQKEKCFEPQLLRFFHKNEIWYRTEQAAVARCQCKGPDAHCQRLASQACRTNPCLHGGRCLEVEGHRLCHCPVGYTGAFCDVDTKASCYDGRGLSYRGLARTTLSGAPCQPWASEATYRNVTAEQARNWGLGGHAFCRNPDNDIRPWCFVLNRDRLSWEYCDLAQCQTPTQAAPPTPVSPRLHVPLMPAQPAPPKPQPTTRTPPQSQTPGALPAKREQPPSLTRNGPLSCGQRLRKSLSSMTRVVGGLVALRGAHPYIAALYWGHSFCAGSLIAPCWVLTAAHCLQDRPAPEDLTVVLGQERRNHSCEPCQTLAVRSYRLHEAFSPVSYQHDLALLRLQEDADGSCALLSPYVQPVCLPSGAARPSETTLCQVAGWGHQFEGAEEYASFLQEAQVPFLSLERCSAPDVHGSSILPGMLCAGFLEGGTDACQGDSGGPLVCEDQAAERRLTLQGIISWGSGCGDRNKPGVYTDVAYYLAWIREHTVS
Description: as §1, §2, §3
as §3, with “minutes. Lipoic acid” for “min. DTE”, “3),” for “2),”, “lipoic acid)” for “DTE)”
as §3, with “minutes. Mercaptoethanol” for “min. DTE”, “4),” for “2),”, “mercaptoethanol)” for “DTE)”
as §3, with “minutes. Potassium borohydride” for “min. DTE”, “5,” for “2),”, “potassium borohydride)” for “DTE)”

[7] = human, 0.1 mg reducing agent/ml plasma (sample C)
[8] = 0.1 mg reducing agent/ml plasma (sample C)
[9] = human, 0.6 mg reducing agent/ml plasma
[10] = human, Table 1 sample D, 0.1 mg DTT/ml plasma
[11] = plasma + 0.14 mg reducing agent
[12] = plasma + 0.28 mg reducing agent

T1 sequence (P00740 47-461): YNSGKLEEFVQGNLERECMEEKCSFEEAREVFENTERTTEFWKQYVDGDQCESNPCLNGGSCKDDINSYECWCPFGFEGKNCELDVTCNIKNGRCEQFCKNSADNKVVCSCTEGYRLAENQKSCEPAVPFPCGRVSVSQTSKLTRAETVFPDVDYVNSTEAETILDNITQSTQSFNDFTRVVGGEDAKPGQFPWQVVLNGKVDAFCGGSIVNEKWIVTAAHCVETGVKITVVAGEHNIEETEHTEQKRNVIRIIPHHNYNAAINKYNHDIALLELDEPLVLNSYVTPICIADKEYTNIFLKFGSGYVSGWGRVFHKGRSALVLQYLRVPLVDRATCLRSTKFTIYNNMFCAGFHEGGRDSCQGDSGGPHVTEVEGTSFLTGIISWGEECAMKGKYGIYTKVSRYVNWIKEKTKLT

activity at 100 µg/mL [1, 7] [%] | Coagulation factor F IX ([1]; plasma + 0.2 mg reducing agent) | Coagulation factor F IX ([1]; plasma + 0.4 mg reducing agent) | Coagulation factor F V [2, 8] | Coagulation factor F V ([2]; plasma + 0.2 mg reducing agent) | Coagulation factor F V ([2]; plasma + 0.4 mg reducing agent) | activity at 100 µg/mL [3, 7] [%] | Coagulation factor F VII ([3]; plasma + 0.2 mg reducing agent) | Coagulation factor F VII ([3]; plasma + 0.4 mg reducing agent) | activity at 100 µg/mL [4, 7] [%] | Coagulation factor F XI ([4]; plasma + 0.2 mg reducing agent) | Coagulation factor F XI ([4]; plasma + 0.4 mg reducing agent) | activity at 100 µg/mL [5, 7] [%] | Coagulation factor F II ([5]; plasma + 0.2 mg reducing agent) | Coagulation factor F II ([5]; plasma + 0.4 mg reducing agent) | activity at 100 µg/mL [6, 7] [%] | Coagulation factor F XII ([6]; plasma + 0.2 mg reducing agent) | Coagulation factor F XII ([6]; plasma + 0.4 mg reducing agent) | Structure (SMILES) | also measured
61 | 28 % of control | 19 % of control | 99 % of control | 99 % of control | 90 % of control | 61 | 30 % of control | 48 % of control | 66 | 3 % of control | 0 % of control | 90 | 66 % of control | 35 % of control | 78 | 1 % of control | 0 % of control | O[C@H](CS)[C@@H](O)CS [DTE, dithioerythritol] | 
129 |  | 8 % of control | 94 % of control |  | 85 % of control | 87 |  | 6 % of control | 47 |  | 0 % of control | 101 |  | 41 % of control | 78 |  | 0 % of control | O[C@H](CS)[C@H](O)CS [DTT, dithiothreitol] | activity at 600 µg/mL [1, 9]: 0%; activity at 100 µg/mL [1, 10]: 16%; Coagulation factor F V ([2]; 0.6 mg reducing agent/ml plasma): 90 % of control; Coagulation factor F V ([2]; Table 1 sample D, 0.1 mg DTT/ml plasma): 90 % of control; activity at 600 µg/mL [3, 9]: 0%; activity at 100 µg/mL [3, 10]: 21%; activity at 600 µg/mL [4, 9]: 0%; activity at 100 µg/mL [4, 10]: 9%; activity at 600 µg/mL [5, 9]: 33%; activity at 100 µg/mL [5, 10]: 69%; activity at 600 µg/mL [6, 9]: 0%; activity at 100 µg/mL [6, 10]: 18%
 |  |  |  |  |  |  |  |  |  |  |  |  |  |  |  |  |  | [BH4-].[K+] [KBH4, potassium borohydride] | Coagulation factor F IX [1, 11]: 77 % of control; Coagulation factor F IX [1, 12]: 71 % of control; Coagulation factor F V [2, 11]: 74 % of control; Coagulation factor F V [2, 12]: 93 % of control; Coagulation factor F VII [3, 11]: 131 % of control; Coagulation factor F VII [3, 12]: 127 % of control; Coagulation factor F XI [4, 11]: 94 % of control; Coagulation factor F XI [4, 12]: 107 % of control; Coagulation factor F II [5, 11]: 92 % of control; Coagulation factor F II [5, 12]: 96 % of control; Coagulation factor F XII [6, 11]: 86 % of control; Coagulation factor F XII [6, 12]: 83 % of control
58 | 52 % of control | 58 % of control | 100 % of control | 91 % of control | 215 % of control | 252 | 203 % of control | 285 % of control | 67 | 32 % of control | 39 % of control | 100 | 103 % of control | 103 % of control | 74 | 78 % of control | 98 % of control | O=C(O)CCCCC1CCSS1 (stereo not drawn) [lipoic acid] | 
 | 33 % of control | 35 % of control |  | 61 % of control | 84 % of control |  | 69 % of control | 29 % of control |  | 74 % of control | 62 % of control |  | 89 % of control | 74 % of control |  | 102 % of control | 121 % of control | OCCS [mercaptoethanol] | 
